Data set [1] concerns the target T1, Mcl-1/Bim interaction, recombinant human Mcl-1 (171-327) (Homo sapiens, UniProt Q07820).
T1 construct: made in house
Kind of data set: Cell free Mcl-1: Bim Affinity Assay (Mcl-1 HTRF). In kind it is binding. In short, it runs like this: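 Read-out is time-resolved FRET after overnight incubation, using a biotin-labelled peptide from human Bim (51-76) as the binding partner; IC50 was derived from competition curves.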
Background: Time-resolved FRET reads energy transfer from a long-lived donor to a nearby acceptor.

Assay in data set [2]: not given
The source holds these as a separate data set.

For data set [3], the system named is OPM-2 human multiple myeloma cell line. Nature of the data set: Cell Viability Assay (OPM-2 10 FBS). The format is cell-based. As to conditions: Homo sapiens, OPM-2, 16 h, OPM-2 cells, 16 h, CellTiter-Glo. Summed up:
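ATP-based luminescence (CellTiter-Glo) measured after a 16 h compound treatment of OPM-2 cells seeded at 3000 cells/well in 10% FBS medium. IC50 values derived by 4-parameter logistic fitting of serial dilutions.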

Where [4] appears, read: cell free Mcl-1:Bim TR-FRET, recombinant human Mcl-1 (171-327).
The mark [5] stands for this setting: TR-FRET, 0.1 nM Mcl-1 (171-327), 0.05 nM biotin-Bim (51-76).

Where two headings read alike, the source gives them in different places.

T1 sequence (Q07820 171-327): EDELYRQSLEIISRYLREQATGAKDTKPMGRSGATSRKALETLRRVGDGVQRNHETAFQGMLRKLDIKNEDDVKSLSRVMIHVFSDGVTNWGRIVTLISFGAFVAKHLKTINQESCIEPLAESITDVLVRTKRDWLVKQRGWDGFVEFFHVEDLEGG

Take `C[C@@H]1CC=C[C@H](O)[C@]2(C)CC[C@H]2CN2C[C@@]3(CCCc4cc(Cl)ccc43)COc3ccc(cc32)C(=O)NS1(=O)=O`: the ring closure, yield after HPLC (from C[C@H](C/C=C/[C@H](O)[C@]1(C)CC[C@H]1CN1C[C@@]2(CCCc3cc(Cl)ccc32)COc2ccc(C(=O)O)cc21)S(N)(=O)=O, amide bond, 15-membered ring, EDC/DMAP, DCM, 2.0 mM, 16.0 h) turned out to be 7.1%.

As usually defined, the IC50 is the concentration that inhibits the measured activity by half. On to `C[C@@H]1C/C=C/[C@H](O)[C@@H]2CC[C@H]2CN2C[C@@]3(CCCc4cc(Cl)ccc43)COc3ccc(cc32)C(=O)NS1(=O)=O` [Example 758, (1S,3′R,6′R,7′S,8′E,11′R)-6-chloro-7′-hydroxy-11′-methyl-3,4-dihydro-2H,14′H-spiro[naphthalene-1,21′-[19]oxa[12]thia[1,13]diazatetracyclo[13.7.2.0^3,6.0^18,23]tetracosa[8,15,17,23]tetraen]-14′-one 12′,12′-dioxide], for which the half-inhibitory concentration (IC50) is 0.46 nM in data set [1] (setting [4]) and 1180 nM in data set [3]. Further, in data set [2] (from C=CC[C@@H](C)S(=O)(=O)NC(=O)c1ccc2c(c1)N(C[C@@H]1CC[C@H]1[C@@H](O)C=C)C[C@@]1(CCCc3cc(Cl)ccc31)CO2, rcm bond, 15-membered ring, Hoveyda-Grubbs II, DCM, 2.65 mM, 7.0 h), the ring closure, isolated yield is 23.8%.

Take `CC[C@@H]1CC/C=C/[C@H](O)[C@@H]2CC[C@H]2CN2C[C@@]3(CCCc4nc(Cl)ccc43)COc3ccc(cc32)C(=O)NS1(=O)=O` [Example 798, (3R,6R,7S,8E,12R,22S)-2′-chloro-12-ethyl-7-hydroxy-7′,8′-dihydro-6′H,15H-spiro[20-oxa-13-thia-1,14-diazatetracyclo[14.7.2.0^3,6.0^19,24]pentacosa-8,16,18,24-tetraene-22,5′-quinolin]-15-one 13,13-dioxide]: the IC50 was 2.42 nM in data set [1] (setting [4]) and 9260 nM in data set [3]. The compound also came in with a ring closure, isolated yield in data set [2] (from C=CCC[C@@H](CC)S(=O)(=O)NC(=O)c1ccc2c(c1)N(C[C@@H]1CC[C@H]1[C@@H](O)/C=C/CCC)C[C@@]1(CCCc3nc(Cl)ccc31)CO2, rcm bond, 16-membered ring, Hoveyda-Grubbs II, AcOH, 2.04 mM) of 39%. For the compound “(1S,3′R,6′R,7′S,8′E,12′R)-12′-(2-(tert-butylsulfonyl)ethyl)-6-chloro-7′-hydroxy-3,4-dihydro-2H,15′H-spiro[naphthalene-1,22′-[20]oxa[13]thia[1,14]diazatetracyclo[14.7.2.0^3,6.0^19,24]pentacosa[8,16,18,24]tetraen]-15′-one 13′,13′-dioxide or (1S,3′R,6′R,7′S,8′E,12′S)-12′-(2-(tert-butylsulfonyl)ethyl)-6-chloro-7′-hydroxy-3,4-dihydro-2H,15′H-spiro[naphthalene-1,22′-[20]oxa[13]thia [1,14]diazatetracyclo[14.7.2.0^3,6.0^19,24]pentacosa[8,16,18,24]tetraen]-15′-one 13′,13′-dioxide”, the ring closure, yield after HPLC (rcm bond, 16-membered ring, Hoveyda-Grubbs II (20 mol%), reduced pressure, AcOH, 2.9 mM, […]) was 6.75%. Under “rcm bond, 15-membered ring”, “(1S,3′R,6′R,11′S)-6-chloro-11′-methyl-3,4-dihydro-2H,7′,14′H-spiro[naphthalene-1,21′-[19]oxa[12]thia[1,13]diazatetracyclo[13.7.2.0^3,6.0^18,23]tetracosa [15,17,23]triene]-7′,14′-dione 12′,12′-dioxide” gave a ring closure, yield after HPLC of 4.8%. Turning to `N#CC[C@@H]1CC/C=C/[C@H](O)[C@@H]2CC[C@H]2CN2C[C@@]3(CCCc4cc(Cl)ccc43)COc3ccc(cc32)C(=O)NS1(=O)=O`, the ring closure, yield after HPLC (from C=CC/C=C/[C@H](O)[C@@H]1CC[C@H]1CN1C[C@@]2(CCCc3cc(Cl)ccc32)COc2ccc(C(=O)NS(=O)(=O)[C@@H](CC#N)CCC=C)cc21, rcm bond, 16-membered ring, Hoveyda-Grubbs II (20 mol%), reduced pressure, AcOH, 2.89 mM, […]) was 3.43%. For `C[C@H]1[C@@H]2/C=C/[C@H](O)[C@@H]3CC[C@H]3CN3C[C@@]4(CCCc5cc(Cl)ccc54)COc4ccc(cc43)C(=O)NS(=O)(=O)[C@@H]1CCC2` [Example 112, (1S,3′R,6′R,7′S,8′E,10′S,14′R,28′S)-6-chloro-7′-hydroxy-28′-methyl-3,4-dihydro-2H,17′H-spiro[naphthalene-1,24′-[22]oxa[15]thia[1,16]diazapentacyclo[16.7.2.1^10,14.0^3,6.0^21,26]octacosa[8,18,20,26]tetraen]-17′-one 15′,15′-dioxide], the IC50 in data set [1] (setting [5]) came out at 0.63 nM; in data set [3], 172 nM. The compound also showed a ring closure, isolated yield in data set [2] (from C[C@H]1[C@H](/C=C/[C@H](O)[C@@H]2CC[C@H]2CN2C[C@@]3(CCCc4cc(Cl)ccc43)COc3ccc(C(=O)O)cc32)CCC[C@H]1S(N)(=O)=O, amide bond, 16-membered ring, EDC/DMAP, DCM, 2.0 mM, 16.0 h) of 21%.

Turning to `O=C1NS(=O)(=O)CCCC/C=C/[C@@H](O)[C@@H]2CC[C@H]2CN2C[C@@]3(CCCc4cc(Cl)ccc43)COc3ccc1cc32` [Example 227, (1S,3′R,6′R,7′R,8′E)-6-chloro-7′-hydroxy-3,4-dihydro-2H,16′H-spiro[naphthalene-1,23′-[21]oxa[14]thia[1,15]diazatetracyclo[15.7.2.0^3,6.0^20,25]hexacosa[8,17,19,25]tetraen]-16′-one 14′,14′-dioxide], the IC50 in data set [1] (setting [5]) was determined as 32.8 nM; in data set [3], 21400 nM. Besides, the ring closure, isolated yield in data set [2] (from C=CCCCCS(=O)(=O)NC(=O)c1ccc2c(c1)N(C[C@@H]1CC[C@H]1[C@H](O)/C=C/CCC)C[C@@]1(CCCc3cc(Cl)ccc31)CO2, rcm bond, 17-membered ring, Hoveyda-Grubbs II, AcOH, 5.2 mM) came to 59%.

For `C[C@@H]1CC/C=C/[C@H](O)[C@@H]2CC[C@H]2CN2C[C@@]3(CCCc4nc(Cl)ccc43)COc3ccc(cc32)C(=O)NS1(=O)=O` [Example 791, (3R,6R,7S,8E,12R,22S)-2′-chloro-7-hydroxy-12-methyl-7′,8′-dihydro-6′H,15H-spiro[20-oxa-13-thia-1,14-diazatetracyclo [14.7.2.0^3,6.0^19,24]pentacosa-8,16,18,24-tetraene-22,5′-quinolin]-15-one 13,13-dioxide], the IC50 amounted to 6.21 nM in data set [1] (setting [4]) and 23300 nM in data set [3]. The ring closure, isolated yield in data set [2] (from C=CCC[C@@H](C)S(=O)(=O)NC(=O)c1ccc2c(c1)N(C[C@@H]1CC[C@H]1[C@@H](O)/C=C/CCC)C[C@@]1(CCCc3nc(Cl)ccc31)CO2, rcm bond, 16-membered ring, Hoveyda-Grubbs II, AcOH, 1.98 mM) turned out to be 40%. For the compound `CC[C@@H]1CC/C=C/C[C@H](O)[C@@H]2CC[C@H]2CN2C[C@@]3(CCCc4cc(Cl)ccc43)COc3ccc(cc32)C(=O)NS1(=O)=O` [Example 553, (1S,3′R,6′R,7′S,9′E,13′R)-6-chloro-13′-ethyl-7′-hydroxy-3,4-dihydro-2H,16′H-spiro[naphthalene-1,23′-[21]oxa[14]thia[1,15]diazatetracyclo[15.7.2.0^3,6.0^20,25]hexacosa[9,17,19,25]tetraen]-16′-one 14′,14′-dioxide], the IC50 in data set [1] (setting [4]) turned out to be 4 nM. Besides, in data set [2] (from C=CCC[C@@H](CC)S(=O)(=O)NC(=O)c1ccc2c(c1)N(C[C@@H]1CC[C@H]1[C@@H](O)CC=C)C[C@@]1(CCCc3cc(Cl)ccc31)CO2, rcm bond, 17-membered ring, Hoveyda-Grubbs II (10 mol%), DCM, 1.4 mM, 45.0 °C, 6.0 h), the ring closure, isolated yield stood at 38%. For the compound “(1S,3′R,6′R,7′S,8′E)-6-chloro-7′-hydroxy-9′-bromo-3,4-dihydro-2H,15′H-spiro[naphthalene-1,22′-[20]oxa[13]thia[1,14]diazatetracyclo[14.7.2.0^3,6.0^19,24]pentacosa[8,16,18,24]tetraen]-15′-one 13′,13′-dioxide or (1S,3′R,6′R,7′R,8′E)-6-chloro-7′-hydroxy-9′-bromo-3,4-dihydro-2H,15′H-spiro[naphthalene-1,22′-[20]oxa[13]thia[1,14]diazatetracyclo[14.7.2.0^3,6.0^19,24]pentacosa[8,16,18,24]tetraen]-15′-one 13′,13′-dioxide”, the ring closure, yield after HPLC (amide bond, 16-membered ring, EDC/DMAP/TEA, DCM, 5.0 mM, […]) is 13%. With “(1S,3′R,6′R,7′S,8′E,11′S,12′R)-6-chloro-7′-hydroxy-12′-(2-methoxyethyl)-11′-methyl-3,4-dihydro-2H,15′H-spiro[naphthalene-1,22′-[20]oxa[13]thia[1,14]diazatetracyclo[14.7.2.0^3,6.0^19,24]pentacosa [8,16,18,24]tetraen]-15′-one 13′,13′-dioxide or [...] or (1S,3′R,6′R,7′S,8′E,11′R,12′R)-6-chloro-7′-hydroxy-12′-(2-methoxyethyl)-11′-methyl-3,4-dihydro-2H,15′H-spiro[naphthalene-1,22′-[20]oxa[13]thia[1,14]diazatetracyclo[14.7.2.0^3,6.0^19,24]pentacosa[8,16,18,24]tetraen]-15′-one 13′,13′-dioxide”, the ring closure, yield after HPLC (rcm bond, 16-membered ring, Hoveyda-Grubbs II, 1,2-dichloroethane, 3.67 mM, 50.0 °C) worked out at 8.2%. With `C=CCCC(C#N)S(=O)(=O)NC(=O)c1ccc2c(c1)N(C[C@@H]1CC[C@H]1[C@@H](O)/C=C/CCC)C[C@@]1(CCCc3cc(Cl)ccc31)CO2` (single isomer, unassigned), where the note is “the molecule shown is the open-chain precursor, rcm bond, 16-membered ring, Hoveyda-Grubbs II (20 mol%), reduced pressure, AcOH, 2.9 mM, […]”, the ring closure, yield after HPLC is 2.58%. As for `O=C1NS(=O)(=O)[C@H]2CCC[C@@H](C=C[C@H](O)[C@@H]3CC[C@H]3CN3C[C@@]4(CCCc5cc(Cl)ccc54)COc4ccc1cc43)C2` (single isomer, unassigned), the ring closure, yield after HPLC (from NS(=O)(=O)[C@H]1CCC[C@@H](/C=C/[C@H](O)[C@@H]2CC[C@H]2CN2C[C@@]3(CCCc4cc(Cl)ccc43)COc3ccc(C(=O)O)cc32)C1, amide bond, 16-membered ring, EDC/DMAP, DCM, 2.0 mM, 16.0 h) was 4.7%.

The record behind these values is patent US12091425B2 (AMGEN INC., priority 2016, dated 2024).
